Results taken from US20250270549A1, “MSI2 AS A THERAPEUTIC TARGET FOR THE TREATMENT OF MYOTONIC DYSTROPHY” (UNIVERSITAT DE VALÈNCIA, priority 2021, published 2025).

Experiments:
Assay type in all cases: cell-based, human
miR-7 = miR-7 quantification by RT-qPCR in MD1 cells
LC3 = LC3 immunostaining and LC3 puncta quantification; details: DM1 myoblasts; 10 μM
Description: For LC3B immunodetection, cells were differentiated in MDM for 7 days (3×10^5 cells/well in 24-well plates). After 48 h of gapmer treatment, cells were fixed with 4% PFA in PBS for 15 min at room temperature. After fixation, cells were permeabilized with methanol 100% for 15 min at −20° C. and blocked with blocking buffer (PBS 1×, 0.5% BSA, 1% goat serum) for 1 h at room temperature. Cells were incubated overnight (O/N) with rabbit anti-LC3B (1:200, ab51520; Abcam, Cambridge, UK) diluted in blocking buffer. Then, samples were incubated with goat anti-rabbit IgG (H+L) Alexa Fluor Plus 594 (1:200; Invitrogen, Carlsbad, CA, USA) for 2 h. Between antibodies, cells were washed three times with PBS 1×. Finally, cells were washed three times with PBS and mounted in Vectashield (Vector Laboratories, London, UK) with […] DAPI.
Image analyses of LC3-stained myotubes were performed using the Ifdotmeter software following the authors' recommendations (see Rodríguez-Arribas, M., et al. (2016). IFDOTMETER: A New Software Application for Automated Immunofluorescence Analysis. J. Lab. Autom. 21, 246-259). Briefly, the quantification of the number of LC3 dots or LC3 puncta was performed with 15-20 images per condition. Total LC3 dots per image were normalized relative to the total area corresponding to all myotubes observed in each image. Myotube area was measured by using ImageJ software. Data were expressed as the number of LC3 dots/mm2.

[1] = test system: UPS system and muscle degradation genes; test: qRT-PCR of genes involved in catabolic pathways leading to muscle degradation; details: 10 μM; immortalized and primary DM1 myoblasts
Description: FIG. 13. MSI2 inhibition in DM1 myoblasts improves pathological phenotypes. (A) MSI2 quantification by western blot and representative blots in control (orange) and DM1 myoblasts treated with vehicle 0.8% DMSO (gray) or 10 μM Ro-08-2750 (red) during the last 48 h of 7-day differentiated myotubes; GAPDH expression was used as an endogenous control. (B) Quantification by qRT-PCR of MSI2 and its direct targets miR-7, P21, and TGFBR1 in the same conditions as those described in (A). (C) Quantification by qRT-PCR of the relative expression of genes involved in catabolic pathways leading to muscle degradation in DM1 treated with vehicle (gray dashed line) and control myoblasts (orange) or DM1 cells treated with compound (red). […] (G) Quantification of myogenic fusion index of the conditions represented in (D)-(F) at 7, 10, and 14 days of differentiation (n=10-15 images). (K) Quantification of the number of LC3 puncta per square micrometer. […] Quantification by western blot of (L) ATG4A and (M) ATG7. Representative blots used for quantification are shown on the side of the bar graphs. […]
FIG. 14. […] (A and B) Quantification by qRT-PCR of the indicated genes in control primary myoblasts (line CNT-10, orange dashed line) and two DM1 lines, DM1-14 and DM1-16, treated with vehicle (0.8% DMSO; gray) or 10 μM Ro-08-2750 (red) for 48 h in 7-day differentiation cultures. […]

DM1-14 and DM1-16 lines = test: Fusion capacity of primary DM1 myoblasts (Desmin immunostaining); details: primary myoblasts cultured for 7 days; 10 μM
Description: To treat primary myoblasts, CNT-10, DM1-14, and DM1-16 with the small molecule Ro 08-2750 cells were cultured as before. […] Information about biopsy donors is compiled in Table 1.
Desmin immunostaining and fusion index and diameter determination were performed as previously described^3. For MSI2 immunodetection, 3.5×10^4 fibroblasts/well were seeded in 24 well plates. After 7 days of differentiation into myotubes, cells were fixed with 4% paraformaldehyde (PFA) for 15 min. After 3 washes with PBS-T (0.1%×-TritonX-100 in PBS 1×) cells were blocked (PBS-T, 1% BSA, 5% normal goat serum) for 1 h and incubated with rabbit anti-MSI2 antibody (1:100, Abcam, EP1305Y, Cambridge, UK) in blocking buffer for 48 h at 4° C. After three washes with PBS-T, cells were incubated for 1 h with goat anti-rabbit-FITC IgG (1:200, Sigma-Aldrich, St. Louis, Missouri) in blocking buffer. Finally, cells were washed thrice with PBS 1× and were counterstained and mounted with VECTASHIELD® mounting medium containing DAPI (Vector Laboratories, London, UK) to detect the nuclei. Images were taken in a confocal microscope LSM800 (Zeiss) at 400× magnification.

Cc1cc2nc3c(=O)[nH]c(=O)nc-3n(C)c2cc1C=O [Ro 08-2750, 2,3,4,10-Tetrahydro-7,10-dimethyl-2,4-dioxobenzo[g]pteridine-8-carboxaldehyde] was tested, and the “expression of miR-7” value (miR-7; 10 μM, all cell lines (immortalized DM1 myoblasts, DM1-14, DM1-16)) was “rescued”, the miR-7 biogenesis (miR-7; DM1 TDMs, 3 μM) was “significantly de-repress” and the “autophagic markers (LC3 puncta, ATG4A, ATG7)” value (LC3) was “reverse autophagic markers to a non-DM1 state”. The “expression of UPS system and muscle degradation genes” value [1] was “significantly rescued” and the “impaired fusion capacity phenotype” value (DM1-14 and DM1-16 lines) was “dramatically reversed”.
